Molecular target: Tyrosine-protein kinase BTK (Homo sapiens, UniProt Q06187)
Experiment: Btk Enzyme Activity Assay: BTK enzymatic activity was determined with the LANCE (Lanthanide Chelate Excite) TR-FRET (Time-resolved fluorescence resonance energy transfer) assay. […] Phosphorylation reactions were allowed to proceed for 120 minutes. […] After 60 minutes incubation with detection reagents, reaction plates were read on a PerkinElmer EnVision plate reader using standard TR-FRET protocol. […] IC50 values were determined by 4 parameter robust fit of TR-FRET ratio values vs. (Log10)) compound concentrations.

Tyrosine-protein kinase BTK, sequence (Q06187 whole entry): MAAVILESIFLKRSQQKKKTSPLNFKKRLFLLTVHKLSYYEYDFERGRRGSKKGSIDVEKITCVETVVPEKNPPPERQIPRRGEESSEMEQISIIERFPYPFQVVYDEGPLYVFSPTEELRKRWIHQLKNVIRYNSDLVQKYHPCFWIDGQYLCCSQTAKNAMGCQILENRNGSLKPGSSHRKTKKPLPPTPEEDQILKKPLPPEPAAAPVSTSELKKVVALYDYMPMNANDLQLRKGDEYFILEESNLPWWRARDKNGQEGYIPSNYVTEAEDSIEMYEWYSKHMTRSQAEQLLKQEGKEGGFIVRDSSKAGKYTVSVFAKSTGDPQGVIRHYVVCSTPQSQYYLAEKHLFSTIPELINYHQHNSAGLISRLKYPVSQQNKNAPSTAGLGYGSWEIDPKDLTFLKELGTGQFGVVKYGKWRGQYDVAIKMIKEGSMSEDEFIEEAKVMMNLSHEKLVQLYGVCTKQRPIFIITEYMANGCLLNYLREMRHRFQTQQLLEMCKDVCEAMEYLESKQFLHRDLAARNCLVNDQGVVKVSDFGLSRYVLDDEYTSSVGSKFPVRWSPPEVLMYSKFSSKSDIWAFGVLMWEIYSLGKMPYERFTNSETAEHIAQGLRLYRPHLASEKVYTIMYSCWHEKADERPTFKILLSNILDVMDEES

Nc1nccn2c([C@@H]3CC[C@@H](CC(=O)O)C3)nc(-c3ccc(C(=O)Nc4cc(C(F)(F)F)ccn4)cc3)c12
IC50: 0.16 nM
